The subject of data set [1] is SMN2 minigene mRNA (SMN2-A minigene) in HEK293H cells. The data set is described as follows: SMN2 minigene mRNA splicing RT-qPCR assay in cultured cells. It counts as cell-based, human. The following applies: Homo sapiens, HEK293-H; concentration increasing full length SMN2 mRNA 1.5-fold relative to vehicle-treated cells; HEK293H cells with SMN2-A minigene, 24 hours, 7-point concentration data; read-out: EC1.5x for production of full length SMN2 mRNA. The gist of the method:
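EC1.5× = concentration raising full-length SMN2 minigene mRNA 1.5-fold over vehicle, from 7-point curves in duplicate. Stably transfected HEK293H cells exposed 24 h at 37 °C; lysates assayed by multiplex RT-qPCR, minigene FL signal normalized to GAPDH via modified ΔΔCt.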
On the technique in general: Real-time PCR tracks product formation cycle by cycle.

Data set [2] relates to Smn protein in SMA patient fibroblast cells (GM03813). The data set is described as follows: Smn protein assay in cultured cells (SMN HTRF). It counts as cell-based, human. The conditions noted are these: SMA patient fibroblast cells, 48 hours; for EC1.5x for Smn protein expression: 7-point concentration curve, SMN HTRF, concentration producing 1.5 times Smn protein vs DMSO vehicle control; for maximum fold (Fold) increase of Smn protein: 7-point concentration data, fold relative to vehicle control. The gist of the method:
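Smn protein quantified by HTRF with anti-SMN d2/kryptate pair, 665/620 nm ratio blank-corrected, in RIPA lysates of GM03813 fibroblasts after 48 h compound exposure (7 concentrations, 3.16-fold steps, triplicates). Values: concentration producing 1.5× vehicle Smn level, and maximal fold increase.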
(In general: Time-resolved FRET reads energy transfer from a long-lived donor to a nearby acceptor.)

Bounds are passed on as bounds.

In general, melting point refers to the temperature, or range, at which the solid turns liquid. For `C[C@H]1CN(c2ccc3nc(-c4ccc(O)c(OC(F)F)c4)cc(=O)n3c2)CCN1` [Compound 102, 2-[3-(difluoromethoxy)-4-hydroxyphenyl]-7-[(3S)-3-methylpiperazin-1-yl]-4H-pyrido[1,2-a]pyrimidin-4-one], the melting point fell in the range of 192 to 197 °C. For the same compound, the EC (1.5-fold increase) in data set [1] lay within 0.3 to 1 µM. In data set [2], the “EC1.5x for Smn protein expression” value was “*** (an EC1.5× between >0.3 μM and ≤1 μM is indicated by three stars (***))”; the “maximum fold (Fold) increase of Smn protein” value (“maximum fold (Fold) increase” for short) is reported as “***** (a fold increase >1.65 is indicated by five stars (*****))”.
The compound `CCc1nc(C)cn2nc(-c3cc(=O)n4cc(C5CCN(CCO)CC5)ccc4n3)cc12` [Compound 659, 2-(4-ethyl-6-methylpyrazolo[1,5-a]pyrazin-2-yl)-7-[1-(2-hydroxyethyl)piperidin-4-yl]-4H-pyrido[1,2-a]pyrimidin-4-one] gave a melting point of 207 to 209 °C. Also, the EC (1.5-fold increase) in data set [1] is under 0.1 µM. Moreover, in data set [2], the “EC1.5x for Smn protein expression” value is “**** (an EC1.5x≤0.3 μM is indicated by four stars (****))” and the “maximum fold (Fold) increase” value was “***** (a fold increase >1.65 is indicated by five stars (*****))”.
`CCc1nc(C)cn2nc(-c3cc(=O)n4cc(N5CCC(N(CC)CC)CC5)ccc4n3)cc12` [Compound 551, 7-[4-(diethylamino)piperidin-1-yl]-2-(4-ethyl-6-methylpyrazolo[1,5-a]pyrazin-2-yl)-4H-pyrido[1,2-a]pyrimidin-4-one] had a melting point of 232 to 235 °C. In addition, in data set [1], the EC (1.5-fold increase) lay within 0.1 to 0.3 µM. For the same compound, in data set [2], the “EC1.5x for Smn protein expression” value was “**** (an EC1.5x≤0.3 μM is indicated by four stars (****))” and the “maximum fold (Fold) increase” value was “***** (a fold increase >1.65 is indicated by five stars (*****))”.
In turn, `Cc1cn2cc(-c3ccc4nc(C5CCN(C)CC5)cc(=O)n4c3)ccc2n1` [Compound 460, 7-(2-methylimidazo[1,2-a]pyridin-6-yl)-2-(1-methylpiperidin-4-yl)-4H-pyrido[1,2-a]pyrimidin-4-one] came in with a melting point of 227 to 230 °C. Besides, the EC (1.5-fold increase) in data set [1] fell in the range of 0.1 to 0.3 µM. For the same compound, in data set [2], the “EC1.5x for Smn protein expression” value is “*** (an EC1.5× between >0.3 μM and ≤1 μM is indicated by three stars (***))”; the “maximum fold (Fold) increase” value is “**** (a fold increase between >1.5 and ≤1.65 is indicated by four stars (****))”.
`Cc1cn2nc(-c3cc(=O)n4cc(C5=CCN(C)CC5)ccc4n3)cc2cn1` [Compound 484, 2-(6-methylpyrazolo[1,5-a]pyrazin-2-yl)-7-(1-methyl-1,2,3,6-tetrahydropyridin-4-yl)-4H-pyrido[1,2-a]pyrimidin-4-one]: the melting point lay within 126 to 128 °C. The EC (1.5-fold increase) in data set [1] was under 0.1 µM. Moreover, in data set [2], the “EC1.5x for Smn protein expression” value was “**** (an EC1.5x≤0.3 μM is indicated by four stars (****))” and the “maximum fold (Fold) increase” value is “***** (a fold increase >1.65 is indicated by five stars (*****))”.
In turn, `O=c1cc(-c2ccccc2F)nc2ccc(N3CCNCC3)cn12` [Compound 51, 2-(2-fluorophenyl)-7-(piperazin-1-yl)-4H-pyrido[1,2-a]pyrimidin-4-one] came in with a melting point of 142 to 146 °C. In addition, the EC (1.5-fold increase) in data set [1] is 3 to 30 µM. Further, the “maximum fold (Fold) increase” value in data set [2] was “** (a fold increase between >1.2 and ≤1.35 is indicated by two stars (**))”.
Consider `CCN1CCN(c2ccc3nc(-c4cc(Cl)c5nc(C)cn5c4)cc(=O)n3c2)C[C@@H]1C` [Compound 496, 2-(8-chloro-2-methylimidazo[1,2-a]pyridin-6-yl)-7-[(3S)-4-ethyl-3-methylpiperazin-1-yl]-4H-pyrido[1,2-a]pyrimidin-4-one], for which the melting point was 234 to 245 °C. Further, the EC (1.5-fold increase) in data set [1] was under 0.1 µM. For the same compound, in data set [2], the “EC1.5x for Smn protein expression” value is “**** (an EC1.5x≤0.3 μM is indicated by four stars (****))” and the “maximum fold (Fold) increase” value is “***** (a fold increase >1.65 is indicated by five stars (*****))”.
Regarding `Cc1cn2nc(-c3cc(=O)n4cc(N5CCN(C)[C@@H](C)C5)ccc4n3)cc2c(C)n1` [Compound 258, 7-[(3S)-3,4-dimethylpiperazin-1-yl]-2-(4,6-dimethylpyrazolo[1,5-a]pyrazin-2-yl)-4H-pyrido[1,2-a]pyrimidin-4-one], the melting point lay in the range of 220 to 223 °C. For the same compound, the EC (1.5-fold increase) in data set [1] was under 0.1 µM. In addition, in data set [2], the “EC1.5x for Smn protein expression” value was “*** (an EC1.5× between >0.3 μM and ≤1 μM is indicated by three stars (***))”; the “maximum fold (Fold) increase” value is “**** (a fold increase between >1.5 and ≤1.65 is indicated by four stars (****))”.
In the case of `CCN1CCC2CN(c3ccc4nc(-c5cc6c(C)nc(C)cn6n5)cc(=O)n4c3)CCC21` (stereo not drawn) [Compound 623, 2-(4,6-dimethylpyrazolo[1,5-a]pyrazin-2-yl)-7-(1-ethyloctahydro-5H-pyrrolo[3,2-c]pyridin-5-yl)-4H-pyrido[1,2-a]pyrimidin-4-one], the melting point was in the range of 176 to 178 °C. The EC (1.5-fold increase) in data set [1] was under 0.1 µM. Further, in data set [2], the “EC1.5x for Smn protein expression” value is recorded as “**** (an EC1.5x≤0.3 μM is indicated by four stars (****))” and the “maximum fold (Fold) increase” value is given as “***** (a fold increase >1.65 is indicated by five stars (*****))”.
`CCCNC1(C)CCN(c2ccc3nc(-c4cc5c(C)nc(C)cn5n4)cc(=O)n3c2)CC1` [Compound 708, 2-(4,6-dimethylpyrazolo[1,5-a]pyrazin-2-yl)-7-[4-methyl-4-(propylamino)piperidin-1-yl]-4H-pyrido[1,2-a]pyrimidin-4-one] gave a melting point of 181 to 183 °C. Also, in data set [1], the EC (1.5-fold increase) was under 0.1 µM. For the same compound, in data set [2], the “EC1.5x for Smn protein expression” value is on record as “**** (an EC1.5x≤0.3 μM is indicated by four stars (****))” and the “maximum fold (Fold) increase” value is “***** (a fold increase >1.65 is indicated by five stars (*****))”.
The compound `Cc1nc2ccc(-c3cc(=O)n4nc(C5CCNCC5)ccc4n3)cc2o1` [Compound 499, 2-(2-methyl-1,3-benzoxazol-6-yl)-7-(piperidin-4-yl)-4H-pyrimido[1,2-b]pyridazin-4-one] came in with a melting point of 126 to 128 °C. Also, in data set [1], the EC (1.5-fold increase) is under 0.1 µM. Further, in data set [2], the “EC1.5x for Smn protein expression” value is reported as “**** (an EC1.5x≤0.3 μM is indicated by four stars (****))” and the “maximum fold (Fold) increase” value was “***** (a fold increase >1.65 is indicated by five stars (*****))”.
`COc1ccc(-c2cc(=O)n3cc(N4CC[C@H](N)C4)ccc3n2)cc1F` [Compound 224, 7-[(3S)-3-aminopyrrolidin-1-yl]-2-(3-fluoro-4-methoxyphenyl)-4H-pyrido[1,2-a]pyrimidin-4-one] yielded a melting point of 193 to 198 °C. Further, the EC (1.5-fold increase) in data set [1] lay in the range of 0.3 to 1 µM. Besides, in data set [2], the “EC1.5x for Smn protein expression” value is “*** (an EC1.5× between >0.3 μM and ≤1 μM is indicated by three stars (***))”; the “maximum fold (Fold) increase” value is “**** (a fold increase between >1.5 and ≤1.65 is indicated by four stars (****))”.
Consider `Cc1nc2ccc(-c3cc(=O)n4cc(N5CCN6CCC[C@H]6C5)ccc4n3)cc2o1` [Compound 197, 7-[(8aS)-hexahydropyrrolo[1,2-a]pyrazin-2(1H)-yl]-2-(2-methyl-1,3-benzoxazol-6-yl)-4H-pyrido[1,2-a]pyrimidin-4-one], for which the melting point fell in the range of 214 to 217 °C. In addition, in data set [1], the EC (1.5-fold increase) lay within 0.1 to 0.3 µM. Also, in data set [2], the “EC1.5x for Smn protein expression” value is reported as “**** (an EC1.5x≤0.3 μM is indicated by four stars (****))” and the “maximum fold (Fold) increase” value is on record as “***** (a fold increase >1.65 is indicated by five stars (*****))”.

The values above are taken from US11753407B2, “Compounds for treating spinal muscular atrophy” (PTC Therapeutics, Inc., priority 2012, dated 2023).
